# According to ChEMBL document CHEMBL5241112, “Insights into the recent progress in the medicinal chemistry of pyranopyrimidine analogs” (RSC Med Chem, 2022):
# pIC50: −log10 of the molar value.
# Columns and labels:
# [1] = molecular target: Polyunsaturated fatty acid 5-lipoxygenase (Homo sapiens, UniProt P09917); assay: Inhibition of 5-LOX (unknown origin) by colorimetric analysis
# cells = conditions: Homo sapiens, Macrophage
# [2] = system: Staphylococcus epidermidis; assay: Antibacterial activity against Staphylococcus epidermidis ATCC12228 assessed as inhibition of bacterial growth incubated for 24 hrs by disk diffusion method; format: functional
# DNA gyrase = DNA gyrase (Escherichia coli, UniProt P0AES4+P0AES6); assay: Inhibition of Escherichia coli DNA gyrase; format: protein-complex assay
# Escherichia coli [3] = assay: Antibacterial activity against Escherichia coli ATCC 25922 assessed as diameter of inhibition zone at 50 mg/ml incubated for 24 hrs by paper disk diffusion method; format: functional; conditions: read-out: DIZ
# Klebsiella pneumoniae [4] = assay: Antibacterial activity against Klebsiella pneumoniae MGH 78578 assessed as diameter of inhibition zone at 50 mg/ml incubated for 24 hrs by paper disk diffusion method; format: functional; conditions: read-out: DIZ
# Penicillium italicum = assay: microbe, parasite or virus in culture; format: functional; conditions: CECT 2294, dose 50 mg/ml, time 24 hrs, read-out: DIZ
# Aspergillus fumigatus [5] = assay: Antifungal activity against Aspergillus fumigatus ATCC204305 assessed as inhibition of […] growth incubated for 24 hrs by disk diffusion method; format: functional
# [6] = Inhibition of Escherichia coli topoisomerase 4 assessed as reduction in decatenation
# Aspergillus fumigatus [7] = assay: microbe, parasite or virus in culture; format: functional; conditions: ATCC204305, dose 50 mg/ml, time 24 hrs, read-out: DIZ
# HT-29 = assay: Antiproliferative activity against human HT-29 cells assessed as reduction in cell viability by MTT assay; format: functional, cell-based
# [8] = Cytotoxicity against human HDF cells assessed as reduction in cell viability by MTT assay; format: toxicity, cell-based; conditions: HDF cells (NHDF cell line)
# Serratia marcescens = assay: Antibacterial activity against Serratia marcescens assessed as diameter of inhibition zone by disc diffusion method; format: functional
# Aspergillus ochraceus = assay: Antifungal activity against Aspergillus ochraceus assessed as diameter of inhibition zone by disc diffusion method; format: functional
# Penicillium chrysogenum = assay: Antifungal activity against Penicillium chrysogenum assessed as diameter of inhibition zone by disc diffusion method; format: functional
# Staphylococcus aureus = assay: Antibacterial activity against Staphylococcus aureus assessed as diameter of inhibition zone by disc diffusion method; format: functional
# [9] = system: Mycobacterium tuberculosis; assay: Antitubercular activity against Mycobacterium tuberculosis H37Rv assessed as bacterial growth inhibition at 250 ug/ml; format: functional
# Plasmodium falciparum = assay: microbe, parasite or virus in culture
# Escherichia coli [10] = assay: Antibacterial activity against Escherichia coli MTCC 443 assessed as bacterial growth inhibition by broth microdilution method; format: functional
# [11] = system: Mycobacterium tuberculosis; assay: Antitubercular activity against Mycobacterium tuberculosis H37Rv assessed as bacterial growth inhibition at 100 ug/ml; format: functional
# [12] = system: Mycobacterium tuberculosis; assay: Antimicrobial activity against Mycobacterium tuberculosis H37Rv assessed reduction bacterial growth at 100 ug/ml incubated for 24 hrs by Lowensteine-Jensen method; format: functional; parameters: scale not given: the % may be the effect or the level left; conditions: dose 100 µg/ml
# Escherichia coli [13] = assay: Antimicrobial activity against Escherichia coli ATCC 25922 assessed as diameter of inhibition zone at 20 mg/ml incubated for 24 hrs by disk diffusion method; format: functional; conditions: read-out: DIZ
# Citrobacter freundii = assay: Antimicrobial activity against Citrobacter freundii ATCC 8090 assessed as diameter of inhibition zone at 20 mg/ml incubated for 24 hrs by disk diffusion method; format: functional; conditions: read-out: DIZ
# Salmonella typhimurium = assay: Antimicrobial activity against Salmonella typhimurium ATCC 19430 assessed as diameter of inhibition zone at 20 mg/ml incubated for 24 hrs by disk diffusion method; format: functional, Salmonella enterica subsp. enterica serovar Typhimurium; conditions: Salmonella enterica, read-out: DIZ
# Pseudomonas aeruginosa = assay: Antimicrobial activity against Pseudomonas aeruginosa ATCC 27853 assessed as diameter of inhibition zone at 20 mg/ml incubated for 24 hrs by disk diffusion method; format: functional; conditions: read-out: DIZ
# Klebsiella pneumoniae [14] = assay: Antimicrobial activity against Klebsiella pneumoniae ATCC 15380 assessed as diameter of inhibition zone at 20 mg/ml incubated for 24 hrs by disk diffusion method; format: functional; conditions: read-out: DIZ
# MDA-MB-231 = assay: cells; conditions: Homo sapiens
# PANC-1 = assay: Antiproliferative activity against human PANC-1 cells assessed as reduction in cell viability by MTT assay; format: functional, cell-based; conditions: read-out: IC50
# Chain of Polyunsaturated fatty acid 5-lipoxygenase (P09917 whole entry): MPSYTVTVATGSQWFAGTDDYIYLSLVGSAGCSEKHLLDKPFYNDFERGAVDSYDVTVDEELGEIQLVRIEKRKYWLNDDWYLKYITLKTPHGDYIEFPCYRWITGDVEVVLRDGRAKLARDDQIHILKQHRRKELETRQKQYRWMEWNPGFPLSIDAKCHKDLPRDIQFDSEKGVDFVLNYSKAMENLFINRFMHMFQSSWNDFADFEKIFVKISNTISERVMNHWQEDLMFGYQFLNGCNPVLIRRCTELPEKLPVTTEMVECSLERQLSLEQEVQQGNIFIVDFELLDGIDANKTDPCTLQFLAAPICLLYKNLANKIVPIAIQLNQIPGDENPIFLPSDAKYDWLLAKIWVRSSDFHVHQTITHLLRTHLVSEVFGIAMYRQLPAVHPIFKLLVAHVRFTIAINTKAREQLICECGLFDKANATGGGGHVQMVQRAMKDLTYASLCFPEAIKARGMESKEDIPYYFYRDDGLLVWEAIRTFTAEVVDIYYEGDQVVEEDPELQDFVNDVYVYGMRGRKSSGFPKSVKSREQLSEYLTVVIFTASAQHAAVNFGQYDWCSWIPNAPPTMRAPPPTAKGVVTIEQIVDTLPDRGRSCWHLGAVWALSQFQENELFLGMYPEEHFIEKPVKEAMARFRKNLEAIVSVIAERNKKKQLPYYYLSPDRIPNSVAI
structure (smiles),measurement,setting,value
N#CC1=C(NC[C@]2(O)O[C@H](O)[C@@H](O)[C@@H](O)[C@H]2O)Oc2[nH]c(=S)[nH]c(=O)c2C1c1ccc(Cl)cc1 (some centres undefined),pIC50,[1],5.78
same,pIC50,cells,5.49
Nc1nc(=S)[nH]c2c1C(c1ccc(Cl)cc1)C=C(c1cc3ccccc3oc1=O)O2 (centres undefined),MIC,[2],15.3 µg/mL
same,pIC50,DNA gyrase,8.31
same,zone of inhibition at 50000 µg/mL,Escherichia coli [3],10 mm
same,zone of inhibition at 50000 µg/mL,Klebsiella pneumoniae [4],12 mm
same,zone of inhibition at 50000 µg/mL,Penicillium italicum,16 mm
same,MIC,Aspergillus fumigatus [5],15.5 µg/mL
same,pIC50,[6],6.47
same,zone of inhibition at 50000 µg/mL,Aspergillus fumigatus [7],10 mm
N#CC1=C(N)Oc2[nH]c(=O)[nH]c(=O)c2C12c1ccccc1-n1c2nc2ccccc2c1=O (centres undefined),pIC50,HT-29,4.63
same,pIC50,[8],< 4.00
N#CCc1nc2c3c(ncn2n1)Oc1ccc2cc(Br)ccc2c1C3,diameter of the inhibition zone (DIZ),Serratia marcescens,23 mm
same,diameter of the inhibition zone (DIZ),Aspergillus ochraceus,17 mm
same,diameter of the inhibition zone (DIZ),Penicillium chrysogenum,13 mm
same,diameter of the inhibition zone (DIZ),Staphylococcus aureus,25 mm
CCOC(=O)C1=C(N)Oc2[nH]c(=O)[nH]c(=O)c2C1c1c(C)nn(-c2ccccc2)c1-n1ccnc1 (centres undefined),inhibition at 250 µg/mL,[9],37%
same,IC50,Plasmodium falciparum,0.97 µg/mL
same,MIC,Escherichia coli [10],100 µg/mL
same,inhibition at 100 µg/mL,[11],30%
same,Activity,[12],92%
Cc1csc(C2C(C#N)=C(N)Oc3[nH]c(=O)[nH]c(=O)c32)c1 (centres undefined),zone of inhibition at 20000 µg/mL,Escherichia coli [13],14 mm
same,zone of inhibition at 20000 µg/mL,Citrobacter freundii,12 mm
same,zone of inhibition at 20000 µg/mL,Salmonella typhimurium,20 mm
same,zone of inhibition at 20000 µg/mL,Pseudomonas aeruginosa,18 mm
same,zone of inhibition at 20000 µg/mL,Klebsiella pneumoniae [14],16 mm
N#CC1=C(N)Oc2[nH]c(=O)[nH]c(=O)c2C12c1cc(Br)ccc1-n1c2nc2ccccc2c1=O (centres undefined),pIC50,MDA-MB-231,4.96
same,pIC50,[8],< 4.00
same,pIC50,PANC-1,4.85
